In general, EC50 refers to the concentration needed to bring the measured effect to its halfway point.

Bounds are passed on as bounds.

The values that follow come from US20230295096A1, “PYRAZOLE CARBOXAMIDE COMPOUNDS FOR TREATMENT OF HBV” (ASSEMBLY BIOSCIENCES, INC., priority 2020, published 2023).

This assay deals with HBV. The experiment in a line: Viral load production from HepAD38 cells, qPCR of the HBV core sequence in supernatant. It counts as cell-based. As to conditions: Hepatitis B virus, HePAD38, 120 h, HepAD38 cells, 5 days, HBV DNA in supernatant by qPCR; Table 1 ranges; read-out: Activity (viral load lowering EC50). An outline of the steps:
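EC50 and CC50 come from four-parameter logistic fits of supernatant HBV core DNA (TaqMan qPCR, DNA standards, compared with DMSO wells) and of CellTiter-Glo luminescence.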
In general terms: Quantitative PCR measures a nucleic acid by following its amplification.
As to `Cn1nc(C2CC3CC(CNS(=O)(=O)C4CC4)CC3C2)c(C(=O)Nc2ccc(F)c(Cl)c2)c1N` (stereo not drawn) [Example 94, 5-Amino-N-(3-chloro-4-fluorophenyl)-3-(5-(cyclopropanesulfonamidomethyl)octahydropentalen-2-yl)-1-methyl-1H-pyrazole-4-carboxamide], the EC50 was below 10 nM.

`Cn1nc(C2CC3CC(CNS(=O)(=O)C4(C)CC4)CC3C2)c(C(=O)Nc2ccc(F)c(Cl)c2)c1N` (stereo not drawn) [Example 95, 5-Amino-N-(3-chloro-4-fluorophenyl)-1-methyl-3-(5-(((1-methylcyclopropane)-l-sulfonamido)methyl)octahydropentalen-2-yl)-1H-pyrazole-4-carboxamide]: the EC50 is below 10 nM. The same measure for `Cn1nc(C2CC3CC(CNS(=O)(=O)C4CCOCC4)CC3C2)c(C(=O)Nc2ccc(F)c(Cl)c2)c1N` (stereo not drawn) [Example 96, 5-Amino-N-(3-chloro-4-fluorophenyl)-1-methyl-3-(5-(((tetrahydro-2H-pyran)-4-sulfonamido)methyl)octahydropentalen-2-yl)-1H-pyrazole-4-carboxamide]: below 10 nM; for `Cn1nc(C2CC3CC(CNS(=O)(=O)C4CCS(=O)(=O)CC4)CC3C2)c(C(=O)Nc2ccc(F)c(Cl)c2)c1N` (stereo not drawn) [Example 97, 5-Amino-N-(3-chloro-4-fluorophenyl)-3-(5-(((1,1-dioxidotetrahydro-2H-thiopyran)-4-sulfonamido)methyl)octahydropentalen-2-yl)-1-methyl-1H-pyrazole-4-carboxamide]: 10 to 50 nM. The same measure for `CC(C(F)(F)F)S(=O)(=O)NCC1CC2CC(c3nn(C)c(N)c3C(=O)Nc3ccc(F)c(Cl)c3)CC2C1` (stereo not drawn) [Example 98, 5-Amino-N-(3-chloro-4-fluorophenyl)-1-methyl-3-(5-(((2,2,2-trifluoro-1-methylethyl)sulfonamido)methyl)octahydropentalen-2-yl)-1H-pyrazole-4-carboxamide]: 10 to 50 nM. The same measure for `C[C@@H](NC1CC2CC(c3nn(C)c(N)c3C(=O)Nc3ccc(F)c(Cl)c3)CC2C1)C(F)(F)F` (stereo partly drawn) [Example 99, 5-Amino-N-(3-chloro-4-fluorophenyl)-1-methyl-3-(5-(((R)-1,1,1-trifluoropropan-2-yl)amino)octahydropentalen-2-yl)-1H-pyrazole-4-carboxamide]: 10 to 50 nM; for `C[C@H](NC1CC2CC(c3nn(C)c(N)c3C(=O)Nc3ccc(F)c(Cl)c3)CC2C1)C(F)(F)F` (stereo partly drawn) [Example 100, 5-Amino-N-(3-chloro-4-fluorophenyl)-1-methyl-3-(5-(((S)-1,1,1-trifluoropropan-2-yl)amino)octahydropentalen-2-yl)-1H-pyrazole-4-carboxamide]: 10 to 50 nM; for `Cn1nc(C2CC3CC4(CNC(=O)N4)CC3C2)c(C(=O)Nc2ccc(F)c(Cl)c2)c1N` (stereo not drawn) [Example 114, 5-Amino-N-(3-chloro-4-fluorophenyl)-1-methyl-3-(2-oxohexahydro-1′H-spiro[imidazolidine-4,2′-pentalen]-5′-yl)-1H-pyrazole-4-carboxamide]: 50 to 500 nM.

For the molecule `Cn1nc(C2CC3CC4(CC3C2)NC(=O)NC4=O)c(C(=O)Nc2ccc(F)c(Cl)c2)c1N` (stereo not drawn) [Example 116, 5-Amino-N-(3-chloro-4-fluorophenyl)-3-(2,5-dioxohexahydro-1′H-spiro[imidazolidine-4,2′-pentalen]-5′-yl)-1-methyl-1H-pyrazole-4-carboxamide], the half-maximal effective concentration (EC50) lay in the range of 50 to 500 nM. On to `Cn1nc(C2CC3CN(C4COC4)CC3C2)c(C(=O)Nc2ccc(F)c(Cl)c2)c1N` (stereo not drawn) [Example 117, 5-Amino-N-(3-chloro-4-fluorophenyl)-1-methyl-3-(2-(oxetan-3-yl)octahydrocyclopenta[c]pyrrol-5-yl)-1H-pyrazole-4-carboxamide], for which the EC50 was 50 to 500 nM.

In the case of `Cn1nc(C2CC3CN(C(=O)OC4CC(F)(F)C4)CC3C2)c(C(=O)Nc2ccc(F)c(Cl)c2)c1N` (stereo not drawn) [Example 118, 3,3-Difluorocyclobutyl 5-(5-amino-4-((3-chloro-4-fluorophenyl)carbamoyl)-1-methyl-1H-pyrazol-3-yl)hexahydrocyclopenta[c]pyrrole-2(1H)-carboxylate], the concentration for a half-maximal effect (EC50) fell in the range of 50 to 500 nM. For `Cn1nc(C2CC3CN(C(=O)OC4COC4)CC3C2)c(C(=O)Nc2ccc(F)c(Cl)c2)c1N` (stereo not drawn) [Example 119, Oxetan-3-yl 5-(5-amino-4-((3-chloro-4-fluorophenyl)carbamoyl)-1-methyl-1H-pyrazol-3-yl)hexahydrocyclopenta[c]pyrrole-2(1H)-carboxylate] the value was 10 to 50 nM; for `Cn1nc(C2CC3CN(C(=O)c4cnc(C(F)(F)F)s4)CC3C2)c(C(=O)Nc2ccc(F)c(Cl)c2)c1N` (stereo not drawn) [Example 120, 5-Amino-N-(3-chloro-4-fluorophenyl)-1-methyl-3-(2-(2-(trifluoromethyl)thiazole-5-carbonyl)octahydrocyclopenta[c]pyrrol-5-yl)-1H-pyrazole-4-carboxamide], 50 to 500 nM; for `Cn1nc(C2CC3CN(C(=O)c4cccc(F)c4)CC3C2)c(C(=O)Nc2ccc(F)c(Cl)c2)c1N` (stereo not drawn) [Example 121, 5-Amino-N-(3-chloro-4-fluorophenyl)-3-(2-(3-fluorobenzoyl)octahydrocyclopenta[c]pyrrol-5-yl)-1-methyl-1H-pyrazole-4-carboxamide], 10 to 50 nM.

Regarding `Cn1nc(C2CC3CN(C(=O)Nc4cccc(F)c4)CC3C2)c(C(=O)Nc2ccc(F)c(Cl)c2)c1N` (stereo not drawn) [Example 122, 5-(5-Amino-4-((3-chloro-4-fluorophenyl)carbamoyl)-1-methyl-1H-pyrazol-3-yl)-N-(3-fluorophenyl)hexahydrocyclopenta[c]pyrrole-2(1H)-carboxamide], the EC50 fell in the range of 10 to 50 nM.

As to `Cn1nc(C2CC3CN(C(=O)NC4CC(F)(F)C4)CC3C2)c(C(=O)Nc2ccc(F)c(Cl)c2)c1N` (stereo not drawn) [Example 123, 5-(5-Amino-4-((3-chloro-4-fluorophenyl)carbamoyl)-1-methyl-1H-pyrazol-3-yl)-N-(3,3-difluorocyclobutyl)hexahydrocyclopenta[c]-pyrrole-2(1H)-carboxamide], the EC50 lay within 50 to 500 nM.

On to `Cn1nc(C2CC3CN(c4c(F)cncc4F)CC3C2)c(C(=O)Nc2ccc(F)c(Cl)c2)c1N` (stereo not drawn) [Example 124, 5-Amino-N-(3-chloro-4-fluorophenyl)-3-(2-(3,5-difluoropyridin-4-yl)octahydrocyclopenta[c]pyrrol-5-yl)-1-methyl-1H-pyrazole-4-carboxamide], for which the EC50 lay in the range of 10 to 50 nM. As to `Cn1nc(C2CC3CN(c4ncc(F)cn4)CC3C2)c(C(=O)Nc2ccc(F)c(Cl)c2)c1N` (stereo not drawn) [Example 125, 5-Amino-N-(3-chloro-4-fluorophenyl)-3-(2-(5-fluoropyrimidin-2-yl)octahydrocyclopenta[c]pyrrol-5-yl)-1-methyl-1H-pyrazole-4-carboxamide], the EC50 is 10 to 50 nM. In the case of `Cn1nc(C2CC3CN(C(=O)NCC4CC(F)(F)C4)CC3C2)c(C(=O)Nc2ccc(F)c(Cl)c2)c1N` (stereo not drawn) [Example 126, 5-(5-Amino-4-((3-chloro-4-fluorophenyl)carbamoyl)-1-methyl-1H-pyrazol-3-yl)-N-((3,3-difluorocyclobutyl)methyl)-hexahydrocyclopenta[c]pyrrole-2(1H)-carboxamide], the EC50 lay in the range of 50 to 500 nM. As for `Cn1nc(C2CC3CN(C(=O)Nc4ncc(C(F)(F)F)s4)CC3C2)c(C(=O)Nc2ccc(F)c(Cl)c2)c1N` (stereo not drawn) [Example 127, 5-(5-Amino-4-((3-chloro-4-fluorophenyl)carbamoyl)-1-methyl-1H-pyrazol-3-yl)-N-(5-(trifluoromethyl)thiazol-2-yl)hexahydrocyclopenta[c]pyrrole-2(1H)-carboxamide], the EC50 lay in the range of 50 to 500 nM. The same measure for `Cn1nc(C2CC3CN(C(=O)OCc4cccc(F)c4)CC3C2)c(C(=O)Nc2ccc(F)c(Cl)c2)c1N` (stereo not drawn) [Example 130, 3-fluorobenzyl 5-(5-amino-4-((3-chloro-4-fluorophenyl)carbamoyl)-1-methyl-1H-pyrazol-3-yl)hexahydrocyclopenta[c]pyrrole-2(1H)-carboxylate]: 10 to 50 nM. `Cn1nc(C2CC3CN(C(=O)NCc4cccc(F)c4)CC3C2)c(C(=O)Nc2ccc(F)c(Cl)c2)c1N` (stereo not drawn) [Example 131, 5-(5-Amino-4-((3-chloro-4-fluorophenyl)carbamoyl)-1-methyl-1H-pyrazol-3-yl)-N-(3-fluorobenzyl)hexahydrocyclopenta[c]pyrrole-2(1H)-carboxamide]: the EC50 is 10 to 50 nM. As to `Cn1nc(C2CC3CN(c4ccc(C(F)(F)F)nn4)CC3C2)c(C(=O)Nc2ccc(F)c(Cl)c2)c1N` (stereo not drawn) [Example 132, 5-Amino-N-(3-chloro-4-fluorophenyl)-1-methyl-3-(2-(6-(trifluoromethyl)pyridazin-3-yl)octahydrocyclopenta[c]pyrrol-5-yl)-1H-pyrazole-4-carboxamide], the EC50 lay in the range of 10 to 50 nM. The same measure for `Cn1nc(C2CC3CN(c4ncc(C(F)(F)F)cn4)CC3C2)c(C(=O)Nc2ccc(F)c(Cl)c2)c1N` (stereo not drawn) [Example 133, 5-Amino-N-(3-chloro-4-fluorophenyl)-1-methyl-3-(2-(5-(trifluoromethyl)pyrimidin-2-yl)octahydrocyclopenta[c]pyrrol-5-yl)-1H-pyrazole-4-carboxamide]: 50 to 500 nM; for `Cn1nc(C2CC3CN(c4ncc(C(F)(F)F)s4)CC3C2)c(C(=O)Nc2ccc(F)c(Cl)c2)c1N` (stereo not drawn) [Example 134, 5-Amino-N-(3-chloro-4-fluorophenyl)-1-methyl-3-(2-(5-(trifluoromethyl)thiazol-2-yl)octahydrocyclopenta[c]pyrrol-5-yl)-1H-pyrazole-4-carboxamide]: 50 to 500 nM; for `Cn1nc(C2CC3CN(c4cnc(C(F)(F)F)cn4)CC3C2)c(C(=O)Nc2ccc(F)c(Cl)c2)c1N` (stereo not drawn) [Example 135, 5-Amino-N-(3-chloro-4-fluorophenyl)-1-methyl-3-(2-(5-(trifluoromethyl)pyrazin-2-yl)octahydrocyclopenta[c]pyrrol-5-yl)-1H-pyrazole-4-carboxamide]: 50 to 500 nM. Turning to `Cn1nc(C2CC3CN(c4c(Cl)cncc4Cl)CC3C2)c(C(=O)Nc2ccc(F)c(Cl)c2)c1N` (stereo not drawn) [Example 136, 5-Amino-N-(3-chloro-4-fluorophenyl)-3-(2-(3,5-dichloropyridin-4-yl)octahydrocyclopenta[c]pyrrol-5-yl)-1-methyl-1H-pyrazole-4-carboxamide], the EC50 was 50 to 500 nM.
